{
  "source": "ChEMBL document CHEMBL1681702",
  "about": "“Biological activity and ligand binding mode to the progesterone receptor of A-homo analogues of progesterone” (Bioorg Med Chem, 2011)",
  "key": {"[1]": {"target": "T1, Progesterone receptor (Homo sapiens) (UniProt P06401)", "T1 sequence (whole entry)": "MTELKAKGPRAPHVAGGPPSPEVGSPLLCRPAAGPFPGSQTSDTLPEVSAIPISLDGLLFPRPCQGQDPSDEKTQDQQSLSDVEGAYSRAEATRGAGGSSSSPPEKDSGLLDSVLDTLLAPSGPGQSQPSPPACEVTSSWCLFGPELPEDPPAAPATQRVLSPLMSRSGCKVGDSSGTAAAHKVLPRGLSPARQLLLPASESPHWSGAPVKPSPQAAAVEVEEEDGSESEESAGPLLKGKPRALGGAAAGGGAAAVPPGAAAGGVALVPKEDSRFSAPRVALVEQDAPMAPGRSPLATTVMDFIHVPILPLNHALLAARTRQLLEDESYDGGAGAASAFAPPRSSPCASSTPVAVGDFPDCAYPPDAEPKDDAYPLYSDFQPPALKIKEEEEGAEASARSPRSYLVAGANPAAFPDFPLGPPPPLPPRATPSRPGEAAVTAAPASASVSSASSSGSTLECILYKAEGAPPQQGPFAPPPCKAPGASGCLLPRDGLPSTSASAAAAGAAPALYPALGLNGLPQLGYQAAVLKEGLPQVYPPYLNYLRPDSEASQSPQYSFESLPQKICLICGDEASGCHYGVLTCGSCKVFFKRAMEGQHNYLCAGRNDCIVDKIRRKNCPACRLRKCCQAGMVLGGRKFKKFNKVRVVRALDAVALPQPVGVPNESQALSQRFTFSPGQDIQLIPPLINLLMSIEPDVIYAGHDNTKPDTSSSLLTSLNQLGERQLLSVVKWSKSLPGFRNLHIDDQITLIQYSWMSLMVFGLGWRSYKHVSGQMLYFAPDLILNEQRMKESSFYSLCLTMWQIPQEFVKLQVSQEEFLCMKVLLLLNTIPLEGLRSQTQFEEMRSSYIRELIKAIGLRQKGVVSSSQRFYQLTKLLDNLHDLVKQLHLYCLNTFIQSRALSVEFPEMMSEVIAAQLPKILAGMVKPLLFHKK", "assay": "Transactivation activity at human progesterone receptor isoform B expressed in human Cos1 cells co-transfected with luciferase reporter gene linked to MMTV promoter at 10^-6 M after 24 hrs", "format": "cell-based"}, "[2]": {"target": "T2, Mineralocorticoid receptor (Homo sapiens) (UniProt P08235)", "T2 sequence (whole entry)": "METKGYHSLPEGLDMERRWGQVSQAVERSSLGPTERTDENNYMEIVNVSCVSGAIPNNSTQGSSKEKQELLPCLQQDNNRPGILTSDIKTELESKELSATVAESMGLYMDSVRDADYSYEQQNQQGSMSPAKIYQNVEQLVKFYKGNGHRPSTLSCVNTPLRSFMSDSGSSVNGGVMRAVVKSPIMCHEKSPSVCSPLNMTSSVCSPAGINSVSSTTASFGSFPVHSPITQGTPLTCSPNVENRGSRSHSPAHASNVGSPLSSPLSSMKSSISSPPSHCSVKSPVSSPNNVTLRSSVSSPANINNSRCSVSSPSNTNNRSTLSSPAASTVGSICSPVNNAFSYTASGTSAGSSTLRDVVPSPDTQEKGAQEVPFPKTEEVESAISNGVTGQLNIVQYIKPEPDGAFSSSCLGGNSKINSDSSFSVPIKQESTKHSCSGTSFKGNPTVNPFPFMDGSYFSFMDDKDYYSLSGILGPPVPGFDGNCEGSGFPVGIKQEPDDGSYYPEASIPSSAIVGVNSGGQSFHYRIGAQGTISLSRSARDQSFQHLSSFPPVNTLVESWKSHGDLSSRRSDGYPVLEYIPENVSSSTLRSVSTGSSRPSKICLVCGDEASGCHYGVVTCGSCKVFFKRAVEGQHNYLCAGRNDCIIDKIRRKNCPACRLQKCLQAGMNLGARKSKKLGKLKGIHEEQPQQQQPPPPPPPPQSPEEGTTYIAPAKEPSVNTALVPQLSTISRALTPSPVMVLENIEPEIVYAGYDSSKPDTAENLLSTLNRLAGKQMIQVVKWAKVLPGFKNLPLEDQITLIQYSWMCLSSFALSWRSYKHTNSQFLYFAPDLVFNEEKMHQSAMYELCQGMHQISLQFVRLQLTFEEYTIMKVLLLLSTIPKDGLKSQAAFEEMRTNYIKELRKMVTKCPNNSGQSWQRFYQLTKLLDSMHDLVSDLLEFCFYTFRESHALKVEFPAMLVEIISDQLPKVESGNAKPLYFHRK", "assay": "Transactivation activity at human MR expressed in human Cos1 cells co-transfected with luciferase reporter gene linked to MMTV promoter and pCMV-LacZ vector at 10^-5 M after 24 hrs", "format": "cell-based"}, "[3]": {"target": "T1, Progesterone receptor (Homo sapiens)", "assay": "Transactivation activity at human progesterone receptor isoform B expressed in human Cos1 cells co-transfected with luciferase reporter gene linked to MMTV promoter at 10^-7 M after 24 hrs", "format": "cell-based"}, "[4]": {"target": "T2, Mineralocorticoid receptor (Homo sapiens)", "assay": "Antagonist activity at human MR expressed in human Cos1 cells co-transfected with luciferase reporter gene linked to MMTV promoter and pCMV-LacZ vector assessed as effect on aldosterone-induced activity at 10^-5 M after 24 hrs", "format": "functional, cell-based"}, "[5]": {"target": "T1, Progesterone receptor (Homo sapiens)", "assay": "Agonist activity at human progesterone receptor in human T47D cells assessed as induction of Bcl-xL gene expression at 10^-6 M after 6 hrs by quantitative PCR", "format": "functional, cell-based"}},
  "note": "Calls of active or inactive are those of the source. No cut-off for these calls is given here.",
  "data": [
    {"smiles": "CC(=O)[C@H]1CC[C@H]2[C@@H]3CC=C4CCC(=O)CC[C@]4(C)[C@H]3CC[C@]12C", "values": [
      {"measurement": "Activity", "setting": "[1]", "value": "Active"},
      {"measurement": "Activity", "setting": "[2]", "value": "inactive"},
      {"measurement": "Activity", "setting": "[3]", "value": "Active"},
      {"measurement": "Activity", "setting": "[4]", "value": "inactive"},
      {"measurement": "Activity", "setting": "[5]", "value": "Active"}
    ]},
    {"smiles": "CC(=O)[C@H]1CC[C@H]2[C@@H]3CC=C4CC(=O)CCC[C@]4(C)[C@H]3CC[C@]12C", "values": [
      {"measurement": "Activity", "setting": "[1]", "value": "Active"},
      {"measurement": "Activity", "setting": "[2]", "value": "inactive"},
      {"measurement": "Activity", "setting": "[3]", "value": "Active"},
      {"measurement": "Activity", "setting": "[4]", "value": "inactive"},
      {"measurement": "Activity", "setting": "[5]", "value": "Active"}
    ]}
  ]
}
